US5877165A, “Boronated porhyrins and methods for their use” (priority 1997, dated 1999)

Experiments:
[1] = cited from earlier work
EMT-6 mammary tumors = assay: Experiment II: boron concentrations in tissues, mice bearing EMT-6 tumors (Table 9); assay type: in vivo, BALB/c mice; details: 90 hrs after last ip injection; NiDPE 78 (6 ip), VCDP 245 μg/gbw (12 ip)
Experimental: Lipophilic porphyrins 1, 2, 4, 5, and 6 were injected as emulsions in either 3% or 9% CRM and either 6% or 18% PRG with saline as previously described in Example 2 above. Water soluble porphyrins 3 and 7 were dissolved in saline. BPA was solubilized as a fructose complex.
Female BALB/c mice (from Taconic Farms, Germantown, N.Y.) (20-25 g) were implanted with either KHJJ or EMT-6 tumors according to the procedure described in Example 3A above.
Under deep halothane anesthesia leading to euthanasia, right ventricular blood was collected in Microtainer (Becton-Dickinson, Rutherford, N.J.) tubes containing EDTA for hematological analyses and boron assays of whole blood and in Microtainer™ tubes containing lithium heparin for chemical analyses and enzyme assays of blood plasma. Tumor, brain, fat, muscle, and liver tissues were sampled at necropsy for boron analyses.
Hematological, chemical and enzymatic tests were carried out as described in Example 3 above. Nonparametric statistical analyses were carried out using the Wilcoxon Two-Sample Test in accordance with procedures described in Slatkin, D.N., 1995. Boron analyses were conducted in accordance with the procedure described in Example 3 above. Fat and liver tissues were assayed for ^10 B by prompt-gamma spectroscopy as described in Fairchild, et al., 1986. These measurements were multiplied by 5.0 to give total boron concentrations due to the use of boron of natural isotope abundance in the syntheses of all boronated porphyrins reported.

[2] = Overall ranking of boronated porphyrins for BNCT guided by biodistribution and toxicity tests in mice (Table 11); details: rank; higher numerical value = better performance
Experimental: The higher the numerical value, the better the performance of that porphyrin for that property. […] Although VCDP was able to deliver therapeutic amounts of boron to tumor, such side effects such as thrombocytopenia, which was induced within 3 hours after injections, weight loss, and the altered hepatic enzymes were serious enough to rank VCDP considerably behind the TCP's and the TCP-H's (Miura et al., 1992). In addition, the 80-hour drug administration period and the 90-hour blood clearance period are of great inconvenience. Moreover, this 4-day difference between the VCDP and the TCP (or TCP-H) dose and clearance schedules would translate into a 4-day greater delay between initiation of drug administration and neutron irradiation which would allow greater tumor growth to occur.
[…]
biodistribution and toxicity tests in mice. An asterisk indicates

EMT-6 tumors = assay: Boron concentrations arithmetically normalized to constant dose, mice bearing EMT-6 tumors (FIG. 3); assay type: in vivo, BALB/c mice; details: normalized porphyrin dose (160 μg porphyrin/gbw)
Experimental: Since the porphyrins were not given at the same dose, the boron concentrations in tumor, blood, and brain were arithmetically normalized to a total dose of 160 μg porphyrin/gbw for comparison in FIG. 3. Since each porphyrin has a different percentage of boron per unit mass, tumor boron concentrations were also arithmetically normalized to a total dose of 36.5 μg B/gbw, also shown in FIG. 3.

In the case of “3,8-divinyl-nido-carboranyldeuteroporphyrin [VCDP]”, the “toxicity vs control, in words” value ([1]; 130 μg VCDP/gbw over 32 hr, 90 hrs after last injection (Miura et al., 1992)) is given as “no differences from control groups given a bicarbonate solution, although CPK was slightly depressed”, the “time to thrombocytopenia after injections” value ([1]; Miura et al., 1992) is given as ≤ 3 h and the “dose per injection that keeps mortality below 10%” value ([1]; per injection, mice) is given as 22 μg VCDP/gbw. For the same substance, the “Boron concentration, Blood” value (EMT-6 mammary tumors) was 7 (4.3-13) μB/g, the “Boron concentration, Brain” value (EMT-6 mammary tumors) was 8.1 (4.9-16.2) μB/g and the “Boron concentration, Tumor” value (EMT-6 mammary tumors) was 53 (30-106) μB/g. The “Drug tolerance/deliverable boron (ranking)” value [2] was 2, the “Lipophilicity (ranking)” value [2] was 0 and the “Tumor uptake (normalized) (ranking)” value [2] was 3. The “Tumor:Blood (ranking)” value [2] was 2 and the “tumor boron uptake, normalized” value (EMT-6 tumors) was 38.
